Test results: US12035718B2, “Biofilm penetrating compositions and methods” (Nevada Naturals Inc., priority 2017, dated 2024)
Where a name gives a salt, the structure may show the parent alone.

Legend:
P. aeruginosa = details: literature reports (Musk et al.; Kim et al.); cited from earlier work
[1] = system: Streptococcus pyogenes, Streptococcus mitis, Staphylococcus epidermidis, and E. coli; details: 10 wt % of hexylene glycol, in vitro; cited from earlier work
[2] = rats; cited from earlier work
S. epidermidis = assay: MIC of LAE/SL mixtures (FIG. 8B); assay type: cell-based; details: Example 8, FIG. 8B; solubilized in DW
Procedure: In Example 8, different pathogens were tested for MIC (Minimum Inhibitory Concentration) with formulations that comprise combinations of LAE and SL. […] In FIGS. 8A and 8B the active ingredients LAE and SL were solubilized in DW as indicated and were tested. […] FIG. 8B reports MIC on combinations of LAE/SL exposed to S. epidermidis.

S. aureus = details: Example 8, FIG. 8A; solubilized in DW
Procedure: In Example 8, different pathogens were tested for MIC (Minimum Inhibitory Concentration) with formulations that comprise combinations of LAE and SL. […] In FIGS. 8A and 8B the active ingredients LAE and SL were solubilized in DW as indicated and were tested. FIG. 8A reports MIC combination of LAE and SL tested on Candida albicans fungi in duplicate and for gram positive S. aureus. FIG. 8B reports MIC on combinations of LAE/SL exposed to S. epidermidis.

Candida albicans = assay: MIC of LAE/SL mixtures (FIG. 7, FIG. 8A); assay type: cell-based; details: Example 8, FIG. 8A; solubilized in DW
Procedure: MIC values of various mixtures of N^α-lauroyl arginine ethyl ester HCl salt and sucrose monolaurate in preventing the growth of Candida alibicans were determined. […] In comparing ratios of wt % of SL to wt % of LAE, ratios from 2:1 to 1:2 show enhancement compared to 100 wt % LAE.

## CCCCCCCCCCCC(=O)N[C@@H](CCCNC(=N)N)C(=O)OCC [LAE, N^α-lauroyl-L-arginine-ethyl ester]
P. aeruginosa
  biofilm formation, result in words: inhibited biofilm formation

## CC(O)CC(C)(C)O (stereo not shown) [hexylene glycol]
[1]
  killing power, comparison: equivalent to 30 wt % of 1,3 butylene glycol or propylene glycol

## CCOC(=O)CC(O)(CC(=O)OCC)C(=O)OCC [triethyl citrate]
[2]
  oral LD50: 7.0 cc/kg

## Ferric ammonium citrate [reference compound]
P. aeruginosa
  biofilm formation, result in words: inhibited biofilm formation in a dose-dependent manner

## sucrose laurate [SL]
S. epidermidis
  MIC, result in words: much higher MIC values than LAE or combinations of LAE/SL
S. aureus
  MIC, result in words: much higher MIC values than LAE or combinations of LAE/SL
Candida albicans
  MIC, result in words: much higher MIC values than LAE or combinations of LAE/SL
